From patent US20100056552A1, “COMBINATION FOR USE IN THE TREATMENT OF INFLAMMATORY DISORDERS” (priority 2007, published 2010)

Assays:
MonoMac-6 (MM6) cells = test: PMA-induced TNF release from MonoMac-6 macrophages (Human TNF ELISA); format: cell-based; details: n=2; for mean TNF concentration after PMA stimulation: 48 h treatment, then PMA 10 ng/mL 5 h, untreated cells 41.1 pg/mL
Procedure: (§1) Cells from the human macrophage cell-line MonoMac-6 (MM6) (Ziegler-Heitbrock et al, Int. J. Cancer, 41, 456 (1988)) were cultured (37° C./5% CO2) in RPMI-1640 medium supplemented with 1 mM sodium pyruvate, × nonessential amino acids, 10 μg/mL insulin, 1 mM oxalacetic acid, 100 units/mL penicillin, 100 μg/mL streptomycin and 5% (v/v) fetal bovine serum. At the start of the experiment, MM6 cells were seeded in 96-well plates at a density of 1×10^5 cells/mL (100 μL per well in cell the viability experiments, and 150 μL per well in the TNF release experiments—see below).
(§2) The MM6 cells were treated (incubation conditions as above) with indicated final concentrations of the test drugs for 48 hours prior to quantification of cell viability/growth or stimulation with phorbol-12-myristate-13-acetate (PMA; Sigma Aldrich, Stockholm, Sweden) followed by measurement of PMA-induced TNF-release (see below for details).
To stimulate formation and release of tumor necrosis factor (TNF), the MM6 cells were incubated (37° C./5% CO2) for five hours (in RPMI-1640 with 5% fetal bovine serum with supplements as above) with PMA at a final concentration of 10 ng/mL.
After spinning down the cells after the different MM6 incubations/stimulations (see above and below), the concentrations of TNF in the supernatants were quantitated using Human TNF ELISA Kit II from BD Biosciences—Pharmingen (San Diego, USA) according to instructions supplied by the manufacturer.
(§3) Stock solutions of suplatast (tosylate salt purchased from American Custom Chemicals Corporation, San Diego, USA) and rosuvastatin (sodium salt; rosuvastatin was extracted and purified from commercially available Crestor® tablets and isolated as sodium salt as described in Bioorganic & Medicinal Chemistry, Vol. 5, No. 5, pp 437-444, 1997) were made in sterile saline.

[1] = MM6 cell growth/viability (WST-1 reagent); format: cell-based; details: human, MonoMac-6 (MM6) macrophage cell line, n=3, read-out: viability of MM6 cells compared to untreated MM6 cells; for viability at 48 h, 10 μM: drug alone 10 μM
Procedure: as §1, §2
MM6 cell growth/viability was measured using the Cell Proliferation Reagent WST-1 (Roche Diagnostics Scandinavia AB, Bromma, Sweden). The WST-1 reagent is designed to be used for spectrophotometric quantification of e.g. cell growth and viability and. was used according to the manufacturers' instructions.
as §3

| Compound | mean TNF concentration after PMA stimulation (MonoMac-6 (MM6) cells; drug alone 10 μM) [pg/mL] | mean TNF concentration after PMA stimulation (MonoMac-6 (MM6) cells; drug alone 30 μM) [pg/mL] | viability at 48 h, 10 μM [1] [%] | viability at 48 h, 30 μM ([1]; drug alone 30 μM) [%] | viability at 48 h, 1 μM ([1]; drug alone 1 μM) [%] | mean TNF concentration after PMA stimulation (MonoMac-6 (MM6) cells; drug alone 1 μM) [pg/mL] | decrease in mean TNF concentration compared to the untreated cells (MonoMac-6 (MM6) cells; drug alone 1 μM) [%] | decrease in mean TNF concentration compared to the untreated cells (MonoMac-6 (MM6) cells; drug alone 10 μM) [%] |
| --- | --- | --- | --- | --- | --- | --- | --- | --- |
| CC(C)c1c(C(=O)Nc2ccccc2)c(-c2ccccc2)c(-c2ccc(F)cc2)n1CC[C@@H](O)C[C@@H](O)CC(=O)O [atorvastatin] | 133.6 | 59.7 |  |  |  |  |  |  |
| CC(C)c1nc(N(C)S(C)(=O)=O)nc(-c2ccc(F)cc2)c1/C=C/[C@@H](O)C[C@@H](O)CC(=O)O [rosuvastatin] | 76.7 | 84.0 | 105 | 102 |  |  |  |  |
| CCOCC(O)COc1ccc(NC(=O)CC[S+](C)C)cc1 (stereo not drawn) [suplatast] | 34.8 |  | 92 |  | 94 | 39.6 | 3.8 | 15.4 |
